What was measured:
[1] = tested on: SK28 Lsh CTL; assay: Cell survival, trypan blue counting; type: cell-based, human; conditions: 4.80 μM of AsiDNA and/or 0.1 μM of Ola; day 6 after treatment
[2] = tested on: 53BP1 and Rad51 foci; assay: 53BP1 and Rad51 foci immunostaining in MDAMB231 cells; type: cell-based, human; conditions: MDAMB231, 24 h, 16 μM AsiDNA +/− 1 μM olaparib
Description: FIG. 9: Effect of the combined treatment AsiDNA and olaparib on DNA repair. Representative images of γH2AX (red) and Rad51 or 53BP1 (green) foci in MDAMB231 (A) or MCF10 (C) cells treated 24 h with Ola and/or AsiDNA. (B, D) Numbering of 53BP1 and Rad51 foci in 100 MDAMB231 cells (B) or MCF10A cells (D) 24 h after Ola and/or AsiDNA treatment. Red bars represent the mean values. (E, F) DNA damage monitored by alkaline comet assay 24 h after Ola and/or AsiDNA treatment in MDAMB231 (E) or MCF10A (F) cells. ns: not significant; *: p<0.05; ****: p<0.0001.
FIG. 10: AsiDNA inhibits irradiation-induced 53BP1 foci. Numbering of 53BP1 foci in 100 MDAMB231 cells 2 h after 10Gy irradiation, 22 h after prior treatment with AsiDNA and/or Ola. Red bars represent the mean values. *: p<0.05; **: p<0.01; ****: p<0.0001.
For immunostaining, MDAMB231 cells are seeded on cover slips (Menzel, Braunschweig, Germany) at a concentration of 5×10^5 cells and incubated at 37° C. during 1 day. Cells are then treated with 16 μM AsiDNA+/−1 μM olaparib. 24 h after treatment, cells are fixed for 20 min in 4% paraformaldehyde/Phosphate-Buffered Saline (PBS 1×), permeabilized in 0.5% Triton X-100 for 10 min, blocked with 2% bovine serum albumin/PBS 1× and incubated with primary antibody for 1 h at 4° C. […]

O=C(c1cc(Cc2n[nH]c(=O)c3ccccc23)ccc1F)N1CCN(C(=O)C2CC2)CC1 [Olaparib, 4-[(3-[(4-cyclopropylcarbonyl)piperazin-4-yl]carbonyl)-4-fluorophenyl]methyl(2H)-phthalazin-1-one]
Survival (%/NT) [1]: 80.6 %/NT | γH2AX, 53BP1 and Rad51 foci in the absence of DNA damaging treatment [2]: induces the accumulation of DSBs

Reference: patent US10563197B2, “Use of a combination of Dbait molecule and PARP inhibitors to treat cancer” (INSTITUT CURIE, priority 2015, dated 2020)
